# Where a SMILES comes first, the peptide text is derived from it. Bridges are numbered along the chain shown (N, C = ends). [ ]: non-standard residue; d: D form. Bip = N[C@@H](Cc1ccc(-c2ccccc2)cc1)C(=O)O; 1Nal = N[C@@H](Cc1cccc2ccccc12)C(=O)O
# Assays:
# Type in all cases: cell-based
# [1] = biological target: Melanocyte-stimulating hormone receptor (Mus musculus, UniProt Q01727); assay: Agonist activity at mouse MC1R expressed in HEK293 cells by cAMP functional bioassay
# [2] = biological target: Melanocortin receptor 3 (Mus musculus, UniProt P33033); assay: Displacement of MTII from mouse MC3R expressed in HEK293 cells; settings: for Kb: read-out: pA2 (converted)
# [3] = biological target: Melanocortin receptor 4 (Mus musculus, UniProt P56450); assay: Displacement of MTII from mouse MC4R expressed in HEK293 cells; settings: for Kb: read-out: pA2 (converted)
# [4] = biological target: Melanocyte-stimulating hormone receptor (Mus musculus) (UniProt Q01727); assay: Agonist activity at mouse MC1R expressed in HEK293 cells at 100 uM by cAMP functional bioassay
# Sequence of Melanocyte-stimulating hormone receptor (Mus musculus) (Q01727 whole entry, looked up): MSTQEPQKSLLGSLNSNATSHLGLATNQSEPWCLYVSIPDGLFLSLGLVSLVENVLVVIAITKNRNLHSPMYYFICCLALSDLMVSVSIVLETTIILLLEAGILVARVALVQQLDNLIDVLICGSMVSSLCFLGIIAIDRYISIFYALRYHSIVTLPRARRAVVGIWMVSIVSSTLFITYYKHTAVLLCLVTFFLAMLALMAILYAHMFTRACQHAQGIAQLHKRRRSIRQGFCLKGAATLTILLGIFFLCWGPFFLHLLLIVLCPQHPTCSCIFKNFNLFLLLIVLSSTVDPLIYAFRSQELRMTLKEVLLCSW
# Sequence of Melanocortin receptor 4 (P56450 whole entry): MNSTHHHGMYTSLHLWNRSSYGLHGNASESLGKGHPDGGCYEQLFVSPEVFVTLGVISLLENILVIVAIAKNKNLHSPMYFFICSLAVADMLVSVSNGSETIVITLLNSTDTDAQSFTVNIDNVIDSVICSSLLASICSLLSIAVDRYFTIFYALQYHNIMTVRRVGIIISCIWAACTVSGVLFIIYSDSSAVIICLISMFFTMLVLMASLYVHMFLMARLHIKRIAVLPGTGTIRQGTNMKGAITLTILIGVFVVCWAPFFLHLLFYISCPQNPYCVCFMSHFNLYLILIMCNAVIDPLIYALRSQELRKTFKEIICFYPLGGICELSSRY
# Sequence of Melanocortin receptor 3 (P33033 whole entry): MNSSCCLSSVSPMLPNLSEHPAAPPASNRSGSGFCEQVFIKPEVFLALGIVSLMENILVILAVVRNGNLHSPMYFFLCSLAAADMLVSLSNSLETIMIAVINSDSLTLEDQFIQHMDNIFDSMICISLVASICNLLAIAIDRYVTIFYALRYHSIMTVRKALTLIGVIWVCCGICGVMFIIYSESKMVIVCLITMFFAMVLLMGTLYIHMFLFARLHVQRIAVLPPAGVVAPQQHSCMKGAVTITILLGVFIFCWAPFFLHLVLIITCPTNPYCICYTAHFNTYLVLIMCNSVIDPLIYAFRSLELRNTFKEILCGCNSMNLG
# Sequence of Melanocyte-stimulating hormone receptor (Q01727 whole entry): as the sequence (Q01727 whole entry, looked up) above
smiles,measurement,setting,value
C[C@@H]1NC(=O)[C@H](CC(N)=O)NC(=O)[C@H](CCc2ccccc2)NC(=O)[C@H](Cc2ccccc2)NC(=O)[C@H](CCCNC(=N)N)NC(=O)[C@@H]2CCCN2C(=O)[C@H]2CCCN2C(=O)[C@H](Cc2ccccc2)NC1=O,EC50,[1]; hek293,20300 nM
C[C@@H]1NC(=O)[C@H](CC(N)=O)NC(=O)[C@H](Cc2ccccc2)NC(=O)C(Cc2ccc3ccccc3c2)NC(=O)[C@H](CCCNC(=N)N)NC(=O)[C@@H]2CCCN2C(=O)[C@H]2CCCN2C(=O)[C@H](Cc2ccccc2)NC1=O (stereo not given in full),Ki,[2],1000 nM
same,Kb,[2],1000 nM
C[C@@H]1NC(=O)[C@H](CC(N)=O)NC(=O)[C@H](Cc2ccccc2)NC(=O)[C@H](Cc2ccccc2)NC(=O)[C@H](CCCNC(=N)N)NC(=O)[C@@H]2CCCN2C(=O)[C@H]2CCCN2C(=O)[C@H](Cc2ccccc2)NC1=O,EC50,[1],4500 nM
C[C@@H]1NC(=O)[C@H](CC(N)=O)NC(=O)[C@H](Cc2ccc3ccccc3c2)NC(=O)[C@H](Cc2ccccc2)NC(=O)[C@H](CCCNC(=N)N)NC(=O)[C@@H]2CCCN2C(=O)[C@H]2CCCN2C(=O)[C@H](Cc2ccccc2)NC1=O,EC50,[1]; hek293,19600 nM
same,Ki,[3]; hek293,63 nM
same,pA2,[3]; hek293,7.2
CC(=O)N[C@H](C(=O)N[C@H]1CSSC[C@@H](C(=O)N[C@@H](CCCNC(=N)N)C(N)=O)NC(=O)[C@H](Cc2ccc(O)cc2)NC(=O)[C@@H]2CSSC[C@H](NC(=O)[C@H](Cc3ccc(O)cc3)NC1=O)C(=O)N[C@@H](CCCNC(=N)N)C(=O)N[C@@H](Cc1ccccc1)C(=O)N[C@@H](Cc1ccccc1)C(=O)N[C@@H](CC(N)=O)C(=O)N[C@@H](C)C(=O)N[C@@H](Cc1ccccc1)C(=O)N2)[C@@H](C)O,Kb,[3],63.1 nM
C[C@@H]1NC(=O)[C@H](CC(N)=O)NC(=O)[C@H](Cc2ccc(-c3ccccc3)cc2)NC(=O)[C@H](Cc2ccccc2)NC(=O)[C@H](CCCNC(=N)N)NC(=O)[C@@H]2CCCN2C(=O)[C@H]2CCCN2C(=O)[C@H](Cc2ccccc2)NC1=O,EC50,[1],500 nM
same,Ki,[3],160 nM
same,Kb,[3],158 nM
C[C@@H]1NC(=O)[C@H](CC(N)=O)NC(=O)[C@@H]2Cc3ccccc3CN2C(=O)[C@H](Cc2ccccc2)NC(=O)[C@H](CCCNC(=N)N)NC(=O)[C@@H]2CCCN2C(=O)[C@H]2CCCN2C(=O)[C@H](Cc2ccccc2)NC1=O,EC50,[1]; hek293,3900 nM
C[C@@H]1NC(=O)C(CN)NC(=O)[C@H](Cc2ccccc2)NC(=O)[C@H](Cc2ccccc2)NC(=O)[C@H](CCCNC(=N)N)NC(=O)[C@@H]2CCCN2C(=O)[C@H]2CCCN2C(=O)[C@H](Cc2ccccc2)NC1=O (stereo not given in full),Activity,[4],75%
same,Ki,[2],130 nM
same,Kb,[2],126 nM
C[C@@H]1NC(=O)C(CCCN)NC(=O)[C@H](Cc2ccccc2)NC(=O)[C@H](Cc2ccccc2)NC(=O)[C@H](CCCNC(=N)N)NC(=O)[C@@H]2CCCN2C(=O)[C@H]2CCCN2C(=O)[C@H](Cc2ccccc2)NC1=O (stereo not given in full),Activity,[4],30%
same,Ki,[2],160 nM
same,Kb,[2],158 nM
C[C@@H]1NC(=O)[C@H](CC(N)=O)NC(=O)[C@H](Cc2ccccc2)NC(=O)[C@H](c2ccccc2)NC(=O)[C@H](CCCNC(=N)N)NC(=O)[C@@H]2CCCN2C(=O)[C@H]2CCCN2C(=O)[C@H](Cc2ccccc2)NC1=O,EC50,[1]; hek293,13600 nM
C[C@@H]1NC(=O)[C@H](CC(N)=O)NC(=O)[C@H](Cc2cccc3ccccc23)NC(=O)[C@H](Cc2ccccc2)NC(=O)[C@H](CCCNC(=N)N)NC(=O)[C@@H]2CCCN2C(=O)[C@H]2CCCN2C(=O)[C@H](Cc2ccccc2)NC1=O,EC50,[1]; hek293,12700 nM
same,Ki,[3]; hek293,16 nM
same,pA2,[3]; hek293,7.8
C[C@@H]1NC(=O)[C@H](Cc2ccccc2)NC(=O)[C@H](C)NC(=O)[C@H](CC(N)=O)NC(=O)[C@H](Cc2ccccc2)NC(=O)[C@H](Cc2ccccc2)NC(=O)[C@H](CCCNC(=N)N)NC(=O)[C@H](C)NC(=O)[C@H](Cc2ccc(O)cc2)NC(=O)[C@@H]2CCCN2C(=O)[C@H]2CCCN2C(=O)[C@H](Cc2ccc(O)cc2)NC1=O,EC50,[1],17600 nM
C[C@H](NC(=O)[C@H](Cc1ccc(O)cc1)NC(=O)[C@@H]1CSSC[C@H](NC(=O)[C@H](Cc2ccc(O)cc2)NC(=O)[C@H](C)NC(=O)[C@@H](N)[C@@H](C)O)C(=O)N[C@@H](CCCNC(=N)N)C(=O)N[C@@H](Cc2ccccc2)C(=O)N[C@@H](Cc2ccccc2)C(=O)N[C@@H](CC(N)=O)C(=O)N[C@@H](C)C(=O)N[C@@H](Cc2ccccc2)C(=O)N1)C(=O)N[C@@H](CCCNC(=N)N)C(N)=O (H-TAYCRFFNAFCYAR-NH2; disulfide 4-11),Kb,[2],794 nM
C[C@@H]1NC(=O)[C@H](CCCCN)NC(=O)[C@H](Cc2ccccc2)NC(=O)[C@H](Cc2ccccc2)NC(=O)[C@H](CCCNC(=N)N)NC(=O)[C@@H]2CCCN2C(=O)[C@H]2CCCN2C(=O)[C@H](Cc2ccccc2)NC1=O,Ki,[2],100 nM
same,Kb,[2],100 nM
same,Ki,[3],5 nM
same,Kb,[3],5.01 nM
C[C@@H]1NC(=O)[C@H](CC(N)=O)NC(=O)[C@H](Cc2ccccc2)NC(=O)[C@H](CCc2ccccc2)NC(=O)[C@H](CCCNC(=N)N)NC(=O)[C@@H]2CCCN2C(=O)[C@H]2CCCN2C(=O)[C@H](Cc2ccccc2)NC1=O,EC50,[1]; hek293,1500 nM
same,Ki,[3]; hek293,100 nM
same,pA2,[3]; hek293,7
C[C@@H]1NC(=O)[C@H](CC(N)=O)NC(=O)[C@H](Cc2ccccc2)NC(=O)[C@H](Cc2ccccc2)NC(=O)[C@H](CCCNC(=N)N)NC(=O)[C@H]([C@@H](C)O)NC(=O)[C@H](Cc2ccc(O)cc2)NC(=O)[C@@H]2CCCN2C(=O)[C@H]2CCCN2C(=O)[C@H](Cc2ccc(O)cc2)NC(=O)[C@H]([C@@H](C)O)NC(=O)[C@H](Cc2ccccc2)NC1=O (cyclo(YTRFFNAFTY[dP]P)),EC50,[1],11600 nM
same,Kb,[2],1260 nM
same,Kb,[3],158 nM
C[C@@H]1NC(=O)[C@H](CC(N)=O)NC(=O)[C@H](Cc2ccccc2)NC(=O)[C@H](Cc2cccc3ccccc23)NC(=O)[C@H](CCCNC(=N)N)NC(=O)[C@@H]2CCCN2C(=O)[C@H]2CCCN2C(=O)[C@H](Cc2ccccc2)NC1=O (cyclo(R[1Nal]FNAF[dP]P)),EC50,[1]; hek293,2500 nM
same,Ki,[3]; hek293,16 nM
same,pA2,[3]; hek293,7.8
C[C@@H]1NC(=O)C(CCN)NC(=O)[C@H](Cc2ccccc2)NC(=O)[C@H](Cc2ccccc2)NC(=O)[C@H](CCCNC(=N)N)NC(=O)[C@@H]2CCCN2C(=O)[C@H]2CCCN2C(=O)[C@H](Cc2ccccc2)NC1=O (stereo not given in full),Activity,[4],50%
same,Ki,[2],100 nM
same,Kb,[2],100 nM
C[C@@H]1NC(=O)[C@H](CC(N)=O)NC(=O)[C@H](c2ccccc2)NC(=O)[C@H](Cc2ccccc2)NC(=O)[C@H](CCCNC(=N)N)NC(=O)[C@@H]2CCCN2C(=O)[C@H]2CCCN2C(=O)[C@H](Cc2ccccc2)NC1=O,EC50,[1]; hek293,21000 nM
same,Ki,[3]; hek293,1300 nM
same,pA2,[3]; hek293,5.9
C[C@@H]1NC(=O)[C@H](CC(N)=O)NC(=O)[C@H](Cc2ccccc2)NC(=O)[C@H](Cc2ccc(-c3ccccc3)cc2)NC(=O)[C@H](CCCNC(=N)N)NC(=O)[C@@H]2CCCN2C(=O)[C@H]2CCCN2C(=O)[C@H](Cc2ccccc2)NC1=O (cyclo(R[Bip]FNAF[dP]P)),EC50,[1],800 nM
same,Ki,[2],630 nM
same,Kb,[2],631 nM
same,Ki,[3],160 nM
same,Kb,[3],158 nM
C[C@@H]1NC(=O)[C@H](CC(N)=O)NC(=O)C(Cc2cccc3ccccc23)NC(=O)[C@H](Cc2ccccc2)NC(=O)[C@H](CCCNC(=N)N)NC(=O)[C@@H]2CCCN2C(=O)[C@H]2CCCN2C(=O)[C@H](Cc2ccccc2)NC1=O (stereo not given in full),Ki,[2],2500 nM
same,Kb,[2],2510 nM
C[C@@H]1NC(=O)[C@H](CC(N)=O)NC(=O)[C@H](Cc2ccccc2)NC(=O)[C@H](Cc2ccc3ccccc3c2)NC(=O)[C@H](CCCNC(=N)N)NC(=O)[C@@H]2CCCN2C(=O)[C@H]2CCCN2C(=O)[C@H](Cc2ccccc2)NC1=O,EC50,[1]; hek293,8800 nM
same,Ki,[3]; hek293,100 nM
same,pA2,[3]; hek293,7
C[C@@H]1NC(=O)CNC(=O)[C@H](Cc2ccccc2)NC(=O)[C@H](Cc2ccccc2)NC(=O)[C@H](CCCNC(=N)N)NC(=O)[C@@H]2CCCN2C(=O)[C@H]2CCCN2C(=O)[C@H](Cc2ccccc2)NC1=O,Activity,[4],50%
same,Ki,[2],25 nM
same,Kb,[2],25.1 nM
same,Ki,[3],4 nM
same,Kb,[3],3.98 nM
CC(=O)N[C@H](C(=O)N[C@H]1CSSC[C@@H](C(=O)N[C@@H](CCCNC(=N)N)C(N)=O)NC(=O)[C@H](Cc2ccc(O)cc2)NC(=O)[C@H]2CSSC[C@H](NC(=O)[C@H](Cc3ccc(O)cc3)NC1=O)C(=O)N[C@@H](CCCNC(=N)N)C(=O)N[C@@H](Cc1ccccc1)C(=O)N[C@@H](Cc1ccccc1)C(=O)N[C@@H](CC(N)=O)C(=O)N[C@@H](C)C(=O)N[C@@H](Cc1ccccc1)C(=O)N2)[C@@H](C)O,Kb,[2],631 nM
CC(=O)N[C@H]1CSSC[C@@H](C(N)=O)NC(=O)[C@H](Cc2ccccc2)NC(=O)[C@H](C)NC(=O)[C@H](CC(N)=O)NC(=O)[C@H](Cc2ccccc2)NC(=O)[C@H](Cc2ccccc2)NC(=O)[C@H](CCCNC(=N)N)NC1=O,IC50,[3]; hek293,Not Active

# Source: ChEMBL document CHEMBL3576802 (J Med Chem, 2015)
